What all share (format): physicochemical
The nature of data set [1]: Thermal gravimetric analysis (TGA) of water/solvent content. Conditions: heated at 10° C./min from 25° C., dry nitrogen purge. Here is the method: Approximately 1-5 mg of sample was added to a tared Platinum cup which was then placed in the weighting position of a Perkin-Elmer Pyris 1 TGA analyzer. The furnace was raised and the starting weight of the sample was recorded. The heating program was then started. The sample was heated at a rate of 10° C./min, starting at 25° C. and ending at 90-300° C., depending on where a constant temperature could be attained. The sample was purged with dry nitrogen gas during analysis.
A sample of crystal modification IV was analyzed with XRPD and the water content was checked with TGA. The weight loss for crystal modification IV was initially slow, but accelerated at about 50° C. and was finalized at about 80° C. A weight loss of 2.7% w/w was observed.
A sample of crystal modification I was analyzed with XRPD and the water content was checked with TGA. […] A weight loss of 0.99% w/w was observed.
The solvent content of a sample of EtOH-1 was analyzed with TGA.

Data set [2] is described as follows: Dynamic Vapor Sorption (DVS) analysis. Particulars: after drying with dry nitrogen, two sorption-desorption cycles, 0 to 10% RH. The method, then:
Approximately 15-20 mg of the sample was weighed into a quartz receptacle, which was then released of static electricity by exposing it to a radioactive source. The quartz receptacle was then positioned in a Surface Measurements System Ltd DVS Advantage instrument. The sample was dried with dry nitrogen gas until a dm/dt below 0.002% per minute was reached. The instrument was running in dm/dt-mode using a dm/dt window of 5 minutes, a minimum stage time of 10 minutes and a maximum stage time of 360 minutes. The sample was then subjected to two consecutive sorption-desorption cycles, using d/m/dt-mode parameters above, and each cycle running from 0-95-0% relative humidity (% RH). One cycle consisted of 20 steps, those between 0-90% RH were taken in 10% RH each.
A sample of crystal modification IV was weighed into the quartz scale pan of a Scientific Instruments Dynamic Vapor Sorption instrument. The sample was released of static electricity by moving a radioactive isotope over it and was then put into the instrument. The sample was dried by flushing dry nitrogen gas until the weight was constant and then two consecutive sorption-desorption cycles were run. Crystal modification IV absorbs approximately 2.45% water between 0 and 10% RH, and an additional 0.36 to 0.37% water between 10 and 60% RH. […]

Data set [3] in a line: Relative thermodynamic stability of crystal modifications. Conditions: normal conditions (21° C., 10-30% relative humidity).
The nature of data set [4]: Storage stability of the crystal modification (XRPD). The method, then: Dry samples were lightly ground in an agate mortar, if needed, and were then smeared out on a sample holder. Slurry samples were added to the sample holder as wet and were analyzed both wet and dry. XRPD data were collected on a cut Silicon Zero Background Holder (ZBH) or on a Porous Alumina Filter Sample Holder, using a PANalytical X'Pert Pro diffractometer, equipped with an X'celerator or a PIXcel detector. The sample was spun during analysis and Cu-radiation was used. The following experimental settings were used:
A batch of crystal modification IV was stored in a closed glass vial and kept at 20° C. and between 20 and 60% RH for 17 months.

Turning to `CCCCC1(CCCC)CN(c2ccccc2)c2cc(SC)c(OCC(=O)N[C@@H](C(=O)NCC(=O)O)c3ccccc3)cc2S(=O)(=O)C1` [EtOH-1, N-{(2R)-2-[({[3,3-dibutyl-7-(methyl-thio)-1,1-dioxido-5-phenyl-2,3,4,5-tetrahydro-1,5-benzothiazepin-8-yl]oxy}acetyl)amino]-2-phenylethanolyl}glycine], the TGA weight loss entry in data set [1] is “approximately 6 % w/w”.

For the compound `CCCCC1(CCCC)CN(c2ccccc2)c2cc(SC)c(OCC(=O)N[C@@H](C(=O)NCC(=O)O)c3ccccc3)cc2S(=O)(=O)C1` [crystal modification I, N-{(2R)-2-[({[3,3-dibutyl-7-(methyl-thio)-1,1-dioxido-5-phenyl-2,3,4,5-tetrahydro-1,5-benzothiazepin-8-yl]oxy}acetyl)amino]-2-phenylethanolyl}glycine], the TGA weight loss in data set [1] amounted to 0.99 % w/w. The “water absorbed between 0 and 10% RH” value in data set [2] is on record as “approximately 0.66%”.

`CCCCC1(CCCC)CN(c2ccccc2)c2cc(SC)c(OCC(=O)N[C@@H](C(=O)NCC(=O)O)c3ccccc3)cc2S(=O)(=O)C1` [crystal modification IV, N-{(2R)-2-[({[3,3-dibutyl-7-(methyl-thio)-1,1-dioxido-5-phenyl-2,3,4,5-tetrahydro-1,5-benzothiazepin-8-yl]oxy}acetyl)amino]-2-phenylethanolyl}glycine] came in with a TGA weight loss in data set [1] of 2.7 % w/w. The “water absorbed between 0 and 10% RH” value in data set [2] is on record as “approximately 2.45%”. In addition, in data set [3], the “thermodynamic stability compared with crystal modification I and other crystal modifications of elobixibat” value was “more thermodynamically stable”. The “crystalline form by XRPD after storage” value in data set [4] (closed glass vial, 20° C., between 20 and 60% RH, 17 months) is “unchanged”. In addition, in data set [4] (such as under ambient, open conditions), the “time of storage for which found stable” value was not below 17 months.

(Values after patent US9745276B2, “Crystal modifications of elobixibat” (Elobix AB, priority 2013, dated 2017).)
